The results in this text go back to patent US7935680B2, “Methods for modulating the axonal growth of central nervous system neurons” (Children's Medical Center Corporation, priority 1997, dated 2011).

Assay [1] has as its system goldfish retinal ganglion cells. Briefly: Axonal outgrowth from dissociated goldfish retinal ganglion cell cultures. Particulars: for effect of reducing agents on outgrowth stimulated by AF-1: a-tocopherol 30 μM, MEG 100 μM; for decline of AF-1 activity: n.s. Format: cell-based. As for the experimental part:
Axogenesis factor-1 was obtained essentially as described in Schwalb et al., 1995, and Schwalb et al., Neuroscience, 72: 901-910, 1996, the contents of which are incorporated herein by reference). Optic nerves were dissected, cut into fragments 1 mm in length, and incubated in a ratio of 6 nerves in 3 ml of either L-15 media (Gibco BRL) or phosphate-buffered saline (Gibco BRL). After 3-4 hours, nerve fragments were removed by filtering through a 0.22 μm pore low protein-binding filter (Gelman). A low molecular weight fraction of the conditioned media was prepared by ultrafiltration, first with a molecular weight cut-off of 3 kDa (Amicon Centriprep-3), then with a cut-off of 1 kDa (Filtron). The filtrate was used as a positive control at 20-30% final concentration. […] Goldfish (Comet Variety, Mt. Parnell Fisheries, Mt. Parnell Pa.), 6-10 cm in length, were dark-adapted and their retinas dissected. Retinas were incubated with papain (20 μg/ml), activated with cysteine (2.8 mM) for 30 minutes at room temperature, then dissociated by gentle trituration. […] Neuroscience 15: 5514-5625, 1995, the contents of which are incorporated herein by reference). […] Cells were maintained at 21° C. in serum free, defined media containing insulin, selenium, transferrin, bovine serum albumin, catalase, superoxide dismutase, hormones, and vitamins in Eagle's L-15 media as described in Schwalb et al., 1995, the contents of which are incorporated herein by reference). Dissociated cultures of purified rat retinal ganglion cells were prepared by immunopanning as described in Barres et al., Neuron, 1: 791-803, 1988, the contents of which are incorporated herein by reference). In brief, retinas from postnatal day 8 Sparague-Dawley rats were dissociated using papain activated with cysteine. Macrophages were removed by incubation with an anti-rat macrophage antibody (Accurate) followed by immunopanning with an anti-rabbit 1gG antibody. Ganglion cells were isolated by immunopanning with an anti-Thy-1 antibody, then dislodged with trypsin for use in low-density cultures. Rat retinal ganglion cells were maintained at 37° C. in a CO2 incubator using the same medium described above except for the presence of 30 mM bicarbonate. In a typical experiment, samples were plated in quadruplicate in randomized positions of a 24-well plate and the code was concealed to ensure that growth was evaluated in a blinded fashion. Each experiment contained 4 wells of a negative control (media plus supplements only) and 4 wells of a positive control (a standardized AF-1 sample of known activity). […] After the completion of counting, the code was broken, the data tabulated, and means and standard errors were calculated for the 4 replicate wells of each sample using Cricket Graph (CA Associates, […].). […] Group comparisons were based upon pairwise, 2-tailed Student's t-tests. Several independent experiments were performed for most samples, as noted in the figure legends. […] Cell survival is reported as the number of viable RGCs per high-powered field.

Assay [2] has as its system rat retinal ganglion cells. Briefly: Axonal outgrowth from purified rat retinal ganglion cells. The assay is classed as cell-based. Conditions: 6-TG 10 μM, rat RGCs. Here is the method:
Goldfish (Comet Variety, Mt. Parnell Fisheries, Mt. Parnell Pa.), 6-10 cm in length, were dark-adapted and their retinas dissected. Retinas were incubated with papain (20 μg/ml), activated with cysteine (2.8 mM) for 30 minutes at room temperature, then dissociated by gentle trituration. Repeated cycles of trituration and sedimentation yielded cultures nearly homogeneous in ganglion cells, which are readily identified by their oval shape, phase-bright appearance, size (diameter 15 μm), and extension of only 1 or 2 neurites of uniform caliber; these criteria have been verified by retrograde labeling (see Schwartz & Agranoff, Brain Res. 206: 331-343, 1981 and Schwalb et al., J. Neuroscience 15: 5514-5625, 1995, the contents of which are incorporated herein by reference). Low density cultures were achieved by plating c. 5×10^3 cells/well into poly L-lysine coated, 24-well culture dishes (Costar, Cambridge, Mass.). Cells were maintained at 21° C. in serum free, defined media containing insulin, selenium, transferrin, bovine serum albumin, catalase, superoxide dismutase, hormones, and vitamins in Eagle's L-15 media as described in Schwalb et al., 1995, the contents of which are incorporated herein by reference). Dissociated cultures of purified rat retinal ganglion cells were prepared by immunopanning as described in Barres et al., Neuron, 1: 791-803, 1988, the contents of which are incorporated herein by reference). In brief, retinas from postnatal day 8 Sparague-Dawley rats were dissociated using papain activated with cysteine. Macrophages were removed by incubation with an anti-rat macrophage antibody (Accurate) followed by immunopanning with an anti-rabbit 1gG antibody. Ganglion cells were isolated by immunopanning with an anti-Thy-1 antibody, then dislodged with trypsin for use in low-density cultures. Rat retinal ganglion cells were maintained at 37° C. in a CO2 incubator using the same medium described above except for the presence of 30 mM bicarbonate.
In a typical experiment, samples were plated in quadruplicate in randomized positions of a 24-well plate and the code was concealed to ensure that growth was evaluated in a blinded fashion. Each experiment contained 4 wells of a negative control (media plus supplements only) and 4 wells of a positive control (a standardized AF-1 sample of known activity). Growth and survival were assessed after 6 days for all ganglion cells in 25 consecutive fields of each well using phase contrast microscopy at 400× magnification (c. 150 ganglion cells counted per well). Extension of a process 5 cell diameters in length was the criterion for growth, since it clearly distinguishes stimulated cells from negative controls (see Schwalb et al., 1995). After the completion of counting, the code was broken, the data tabulated, and means and standard errors were calculated for the 4 replicate wells of each sample using Cricket Graph (CA Associates, Islandia, N.Y.). Data were normalized by subtracting the growth in the negative controls (usually 4-5%) and dividing by the net growth in the positive controls. In the most favorable experiments, more than 50% of retinal ganglion cells (RGCs) exposed to AF-1 extended axons 5 cell diameters in length after 6 days. Group comparisons were based upon pairwise, 2-tailed Student's t-tests. Several independent experiments were performed for most samples, as noted in the figure legends. In some cases, cell viability was assessed with the dye 5,6-carboxyfluorescein diacetate. […]

“Also recorded” adds a separate entry of the source.

Take `Nc1ncnc2c1ncn2[C@@H]1O[C@H](COP(=O)(O)OP(=O)(O)OP(=O)(O)O)[C@@H](O)[C@H]1O` [ATP, adenosine triphosphate]: the axonal outgrowth activity entry is “marginally significant level of activity” in assay [1] (at 10 μM) and “not at 100 μM” in assay [1] (at 100 μM).

For the compound `Nc1nc(Cl)nc2c1ncn2[C@@H]1O[C@H](CO)[C@@H](O)[C@H]1O` [2-CA, 2-chloroadenosine], the “growth relative to baseline” value in assay [1] (100 μM, FIG. 2) is on record as “diminishes growth below baseline levels”; in assay [1] (10 and 100 μM, 3 out of 3 experiments), “small but significant decrease in growth below the baseline”.

As for `Cn1c(=O)c2[nH]c(-c3ccc(S(=O)(=O)O)cc3)nc2n(C)c1=O` [8-PST, 8-p-(sulfophenyltheophylline)], the “effect on outgrowth stimulated by adenosine, guanosine, or AF-1” value in assay [1] (8-PST at 20 μM) was “no effect”. Besides, the “effect on outgrowth stimulated by AF-1, 100 μM adenosine or 100 μM guanosine” value in assay [1] (addition of 20 pM 8-PST) is recorded as “unaffected”.

In the case of glutathione a-methyl ester [MEG], in assay [1], the “effect of reducing agents on outgrowth stimulated by AF-1” value is “no effect; also recorded: not mimicked”.

As to `Nc1nc2c(nc(Sc3ccc(Cl)cc3)n2[C@@H]2O[C@@H]3COP(=O)(O)O[C@H]3[C@H]2O)c(=O)[nH]1` [8-pcpt-cGMP, 8-(4-chlorophenylthio) guanosine-3′,5′-cyclic monophosphate], the axonal outgrowth activity result in assay [1] (concentrations up to 1 mM) is “inactive”.

`Nc1nc2c(nc(Br)n2[C@@H]2O[C@@H]3COP(=O)(O)O[C@H]3[C@H]2O)c(=O)[nH]1` [8-Br cGMP, 8-bromo cyclic GMP]: the axonal outgrowth activity result in assay [1] (tested at concentrations between 1-100 μM) is given as “Neither dibutyryl cAMP (dBcAMP) nor 8-Br cGMP showed any activity”.

Turning to `Nc1ncnc2c1ncn2[C@@H]1O[C@H](COP(=O)(O)OP(=O)(O)O)[C@@H](O)[C@H]1O` [ADP, adenosine diphosphate], the axonal outgrowth activity entry in assay [1] (at 100 μM) was “marginally significant level of activity”.

`Nc1ncnc2c1ncn2[C@@H]1O[C@H](COP(=O)(O)O)[C@@H](O)[C@H]1O` [AMP, adenosine 5′ monophosphate]: in assay [1] (at 100 μM), the axonal outgrowth activity entry is listed as “marginally significant level of activity”.

In the case of `Nc1nc2nc[nH]c2c(=S)[nH]1` [6-TG, 6-thioguanine], in assay [1] (6-TG 10 μM), the “effect on growth stimulated by 100 μM inosine or 100 μM guanosine” value is given as “no effect; also recorded: unaffected” and the “effect on growth stimulated by AF-1” value was “blocked all growth stimulated by AF-1; also recorded: suppressed growth induced by AF-1 below baseline; also recorded: completely blocked”. Further, the “effect on CNTF-induced outgrowth” value in assay [2] is “blocked CNTF-induced outgrowth; also recorded: inhibited”.

With `OCCN(CCO)c1nc(N2CCCCC2)c2nc(N(CCO)CCO)nc(N3CCCCC3)c2n1` [dipyridamole], the “effect of transport inhibitors on 6-TG blockade of AF-1-stimulated outgrowth” value in assay [1] (6-TG 10 μM, NBTI 20 μM, dipyridamole 10 μM) is “failed to prevent 6-TG from blocking outgrowth; also recorded: not restored”. Further, in assay [1] (NBTI 20 μM, dipyridamole 10 μM), the “decline of AF-1 activity” value came to 25%.

Take “8-bromoadenosine-3′,5′ cyclic monophosphorothioate [Sp-8-Br-cAMPS]”: the axonal outgrowth activity entry in assay [1] (concentrations up to 1 mM) was “inactive”.

As to `O=[N+]([O-])c1ccc(CSc2ncnc3c2ncn3C2OC(CO)C(O)C2O)cc1` (stereo not drawn) [NBTI, nitrobenzylthio inosine], the “effect on the activity of AF-1” value in assay [1] (NBTI 20 μM) was “no effect”. Further, the “loss of activity of inosine” value in assay [1] (NBTI 20 μM, 50 μM inosine) stood at 86%. Further, the “loss of activity of guanosine” value in assay [1] (NBTI 20 μM, 100 μM guanosine) amounted to 93%. Besides, the “decline of AF-1 activity” value in assay [1] (NBTI 20 μM, dipyridamole 10 μM) is 10%.

For `O=c1[nH]cnc2nc[nH]c12` [hypoxanthine], the axonal outgrowth activity result in assay [1] (dose-response, FIG. 4) is “no activity at all”; in assay [1] (dose-response, FIG. 4, listed as Hypoxanthine), “inactive”.

`Cc1c(C)c2c(c(C)c1O)CC[C@@](C)(CCC[C@H](C)CCC[C@H](C)CCCC(C)C)O2` [a-tocopherol]: the “effect of reducing agents on outgrowth stimulated by AF-1” value in assay [1] was “no effect; also recorded: not mimicked”.
